The numbers were not newly measured in patent US12201111B2, “Glyphosate formulations containing amidoalkylamine surfactants” (Monsanto Technology LLC, priority 2016, dated 2025), which cites them from elsewhere.

The conditions of the data set: glyphosate in its acid form; 25° C.

Consider `O=C(O)CNCP(=O)(O)O` [glyphosate, N-phosphonomethylglycine], for which the solubility in water is reported as 1.16 % by weight.
